According to patent US20190085024A1, “Alpha-Ketoamide Inhibitors Of Cysteine Proteases” (Phelix Therapeutics, priority 2017, published 2019):
Where two headings read alike, the source gives them in different places.

Tests used:
Calpain = Calpain enzyme assay; format: biochemical; settings: Ki by Morrison equation; pH 7.5, 5 mM CaCl2
Cathepsin L = Cathepsin L (Homo sapiens, UniProt P07711); test: Cathepsin L enzyme assay; format: biochemical; settings: Ki by Morrison equation; pH 5.5, substrate Z-Phe-Arg-Amc; read-out: Cat L
Description: Two wells contained DMSO only for controls.
Velocity was converted to μM/sec.

Cathepsin B = Cathepsin B (Homo sapiens, UniProt P07858); test: Cathepsin B enzyme assay; settings: Cat B (μM), Ki by Morrison equation; pH 6.0, substrate Z-Phe-Arg-Amc
Cat S = Cat S (Homo sapiens, UniProt P25774); test: Cat S inhibition; format: biochemical
Cat K = biological target: T1, Cat K (Homo sapiens, UniProt P43235); test: Cat K inhibition; format: biochemical
T1 sequence (P43235 115-329): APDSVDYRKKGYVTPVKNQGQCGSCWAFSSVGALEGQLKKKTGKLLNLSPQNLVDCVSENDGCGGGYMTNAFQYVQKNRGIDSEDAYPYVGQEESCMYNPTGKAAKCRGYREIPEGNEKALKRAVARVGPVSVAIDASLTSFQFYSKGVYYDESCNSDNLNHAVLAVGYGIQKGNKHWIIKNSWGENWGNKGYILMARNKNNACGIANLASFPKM

MERS WT = test: microbe, parasite or virus in culture; format: cell-based
[1] = system: EBOV WT (Ebola Wild Type); test: microbe, parasite or virus in culture; format: cell-based; settings: read-out: EBOV WT (μM) (Ebola Wild Type)
[2] = Middle East respiratory syndrome-related coronavirus, read-out: MERS WT (μM)

Chain of Cat S (P25774 115-331): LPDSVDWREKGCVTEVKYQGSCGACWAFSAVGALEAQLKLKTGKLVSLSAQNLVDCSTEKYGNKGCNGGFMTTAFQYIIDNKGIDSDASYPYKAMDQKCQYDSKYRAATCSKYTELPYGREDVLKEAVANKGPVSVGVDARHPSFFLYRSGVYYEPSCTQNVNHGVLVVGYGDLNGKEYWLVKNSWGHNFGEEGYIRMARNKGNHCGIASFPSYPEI
Chain of Cathepsin L (P07711 114-333, species assumed): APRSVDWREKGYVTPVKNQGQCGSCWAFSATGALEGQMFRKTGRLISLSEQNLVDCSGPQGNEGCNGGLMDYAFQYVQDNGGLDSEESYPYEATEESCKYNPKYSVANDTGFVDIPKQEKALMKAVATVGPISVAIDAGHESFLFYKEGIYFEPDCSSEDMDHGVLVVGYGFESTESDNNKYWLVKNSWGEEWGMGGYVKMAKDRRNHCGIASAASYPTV

| SMILES | Ki (Calpain) | Ki (Cathepsin L) | Ki (Cathepsin B) | Ki (Cat S) | Ki (Cat K) | IC50 (MERS WT; [2]) | IC50 ([1]; Zaire ebolavirus) | IC50 (MERS WT; read-out: MERS WT) | IC50 [1] |
| --- | --- | --- | --- | --- | --- | --- | --- | --- | --- |
| CC(C)CC(NC(=O)OCc1ccccc1)C(=O)NC(C)C(=O)C(=O)NCC(=O)NC(Cc1ccccc1)C(=O)NCCc1ccccc1 (stereo not drawn) [PHELIX238, benzyl (5-benzyl-12,17-dimethyl-4,7,10,11,14-pentaoxo-1-phenyl-3,6,9,13-tetraazaoctadecan-15-yl)carbamate] | 91.1 nM | 3.88 nM | 0.313 µM | 20.3 nM | 27.7 nM |  |  |  |  |
| CC(NC(=O)C(Cc1ccc(F)cc1)NC(=O)Cc1ccccc1)C(=O)C(=O)NC(Cc1ccccc1)C(=O)NC(C)(C)C(N)=O (stereo not drawn) [PHELIX208, N-(1-((1-amino-2-methyl-1-oxopropan-2-yl)amino)-1-oxo-3-phenylpropan-2-yl)-3-(3-(4-fluorophenyl)-2-(2-phenylacetamido)propanamido)-2-oxobutanamide] | > 10000 nM | 15.4 nM | 0.42 µM | 3.73 nM | 1920 nM | 184 µM | 8.15 µM |  |  |
| Cc1ccccc1CC(=O)NC(Cc1ccccc1)C(=O)NC(C)C(=O)C(=O)NC(Cc1ccccc1)C(=O)NC(C)(C)C(N)=O (stereo not drawn) [PHELIX226, N-(1-((1-amino-2-methyl-1-oxopropan-2-yl)amino)-1-oxo-3-phenylpropan-2-yl)-2-oxo-3-(3-phenyl-2-(2-(o-tolyl)acetamido)propanamido)butanamide] | > 10000 nM | 9.54 nM | 0.273 µM |  | 1770 nM | 114 µM | 5.09 µM |  |  |
| CC(NC(=O)C(Cc1ccccc1)NC(=O)Cc1ccccc1)C(=O)C(=O)NC(Cc1ccccc1)C(=O)NC(Cc1ccc2ccccc2c1)C(N)=O (stereo not drawn) [PHELIX220, N-(1-((1-amino-3-(naphthalen-2-yl)-1-oxopropan-2-yl)amino)-1-oxo-3-phenylpropan-2-yl)-2-oxo-3-(3-phenyl-2-(2-phenylacetamido)propanamido)butanamide] | > 10000 nM | 0.05 nM | 5.1 µM | 0.22 nM | 21.9 nM |  |  | 3.15 µM | 0.06 µM |
| CC(NC(=O)C(Cc1ccccc1)NC(=O)c1ccccc1)C(=O)C(=O)NC(Cc1ccccc1)C(=O)NC(C)(C)C(N)=O (stereo not drawn) [PHELIX223, N-(1-((4-((1-((1-amino-2-methyl-1-oxopropan-2-yl)amino)-1-oxo-3-phenylpropan-2-yl)amino)-3,4-dioxobutan-2-yl)amino)-1-oxo-3-phenylpropan-2-yl)benzamide] | > 10000 nM | 19.9 nM | 0.246 µM | 4.44 nM | 281 nM | 35.3 µM | 5.61 µM |  |  |
| CC(NC(=O)C(Cc1ccccc1)NC(=O)Cc1ccccc1)C(=O)C(=O)NC(Cc1cc2ccccc2[nH]1)C(=O)NC(C)(C)C(N)=O (stereo not drawn) [PHELIX232, N-(1-((1-amino-2-methyl-1-oxopropan-2-yl)amino)-3-(1H-indol-2-yl)-1-oxopropan-2-yl)-2-oxo-3-(3-phenyl-2-(2-phenylacetamido)propanamido)butanamide] | > 10000 nM | 213 nM | 19.9 µM | 147 nM | 1840 nM |  |  |  |  |
| CC(NC(=O)C(Cc1ccccc1)NC(=O)c1ccccc1F)C(=O)C(=O)NC(Cc1ccccc1)C(=O)NC(C)(C)C(N)=O (stereo not drawn) [PHELIX224, N-(1-((4-((1-((1-amino-2-methyl-1-oxopropan-2-yl)amino)-1-oxo-3-phenylpropan-2-yl)amino)-3,4-dioxobutan-2-yl)amino)-1-oxo-3-phenylpropan-2-yl)-2-fluorobenzamide] | > 10000 nM | 45.7 nM | 0.422 µM | 33.2 nM |  | > 10 µM | 11 µM |  |  |
| CCC(C)C(NC(=O)C(Cc1ccccc1)NC(=O)Cc1ccccc1)C(=O)C(=O)NC(Cc1ccccc1)C(=O)NC(C)(C)C(N)=O (stereo not drawn) [PHELIX233, N-(1-((1-amino-2-methyl-1-oxopropan-2-yl)amino)-1-oxo-3-phenylpropan-2-yl)-4-methyl-2-oxo-3-(3-phenyl-2-(2-phenylacetamido)propanamido)hexanamide] | > 10000 nM | 8.09 nM | 0.223 µM | 2.55 nM | 354 nM |  |  |  |  |
| CC(NC(=O)C(Cc1ccccc1)NC(=O)Cc1ccccc1)C(=O)C(=O)NC(Cc1ccccc1)C(=O)NC(Cc1ccc(C(C)(C)C)cc1)C(N)=O (stereo not drawn) [PHELIX221, N-(1-((1-amino-3-(4-(tert-butyl)phenyl)-1-oxopropan-2-yl)amino)-1-oxo-3-phenylpropan-2-yl)-2-oxo-3-(3-phenyl-2-(2-phenylacetamido)propanamido)butanamide] | > 10000 nM | 0.02 nM | 3.57 µM | 0.19 nM | 13.6 nM | 1.32 µM | 0.03 µM |  |  |
| CC(C)CC(NC(=O)C(=O)C(C)NC(=O)C(Cc1ccccc1)NC(=O)Cc1ccccc1)C(=O)NC(C)(C)C(N)=O (stereo not drawn) [PHELIX214, N-(1-amino-2-methyl-1-oxopropan-2-yl)-4-methyl-2-(2-oxo-3-(3-phenyl-2-(2-phenylacetamido)propanamido)butanamido)pentanamide] | 85400 nM | 281 nM | 5.79 µM | 39.8 nM | 2460 nM | > 10 µM | 24.2 µM |  |  |
| CC(NC(=O)C(Cc1cccc2ccccc12)NC(=O)Cc1ccccc1)C(=O)C(=O)NC(Cc1ccccc1)C(=O)NC(C)(C)C(N)=O (stereo not drawn) [PHELIX205, N-(1-((1-amino-2-methyl-1-oxopropan-2-yl)amino)-1-oxo-3-phenylpropan-2-yl)-3-(3-(napthalen-1-yl)-2-(2-phenylacetamido)propanamido)-2-oxobutanamide] | 12500 nM | 70.4 nM | 0.977 µM | 229 nM | 6410 nM | > 10 µM | 21.9 µM |  |  |
| Cc1cccc(CC(=O)NC(Cc2ccccc2)C(=O)NC(C)C(=O)C(=O)NC(Cc2ccccc2)C(=O)NC(C)(C)C(N)=O)c1 (stereo not drawn) [PHELIX225, N-(1-((1-amino-2-methyl-1-oxopropan-2-yl)amino)-1-oxo-3-phenylpropan-2-yl)-2-oxo-3-(3-phenyl-2-(2-(m-tolyl)acetamido)propanmido)butanamide] | > 10000 nM | 18.6 nM | 0.299 µM | 8.12 nM | 254 nM | 84.2 µM | 6.17 µM |  |  |
| CC(NC(=O)C(Cc1ccccc1)NC(=O)Cc1ccccc1)C(=O)C(=O)NC(CCCNC(=N)N)C(=O)NC(C)(C)C(N)=O (stereo not drawn) [PHELIX234, N-(1-amino-2-methyl-1-oxopropan-2-yl)-5-guanidino-2-(2-oxo-3-(3-phenyl-2-(2-phenylacetamido)propanamido)butanamido)pentanamide] | > 10000 nM | 129 nM | > 10 µM | 78.1 nM | 1080 nM |  |  |  |  |
| CC(NC(=O)[C@H](Cc1ccccc1)NC(=O)C(c1ccccc1)c1ccccc1)C(=O)C(=O)N[C@@H](Cc1ccccc1)C(=O)NC(C)(C)C(N)=O (stereo partly drawn) [PHELIX237, N-((S)-1-((1-amino-2-methyl-1-oxopropan-2-yl)amino)-1-oxo-3-phenylpropan-2-yl)-3-((S)-2-(2,2-diphenylacetamido)-3-phenylpropanamido)-2-oxobutanamide] | > 10000 nM | 3.36 nM | 0.0211 µM | 0.8 nM | 226 nM |  |  |  |  |
| CC(NC(=O)C(Cc1ccccc1)NC(=O)Cc1ccccc1)C(=O)C(=O)NC(Cc1ccccc1)C(=O)NC(C)(C)C(N)=O (stereo not drawn) [PHELIX249, N-(1-((1-amino-2-methyl-1-oxopropan-2-yl)amino)-1-oxo-3-phenylpropan-2-yl)-2-oxo-3-(3-phenyl-2-(2-phenylacetamido)propanamido)butanamide] | > 10000 nM | 101 nM | 0.349 µM | 6.81 nM | 736 nM | > 30 µM |  |  |  |
| CC(NC(=O)C(Cc1ccccc1)NC(=O)Cc1ccccc1)C(=O)C(=O)NC(Cc1ccccc1)C(=O)NC(C)(C)C(=O)NCCN1CCOCC1 (stereo not drawn) [PHELIX231, N-(1-((2-methyl-1-((2-morpholinoethyl)amino)-1-oxopropan-2-yl)amino)-1-oxo-3-phenylpropan-2-yl)-2-oxo-3-(3-phenyl-2-(2-phenylacetamido)propanamido)butanamide] | 3790 nM | 13.7 nM | 2.3 µM | 200 nM | 4890 nM |  |  |  |  |
| CC(NC(=O)C(Cc1ccccc1)NC(=O)Cc1ccccc1)C(=O)C(=O)NC(Cc1ccccc1)C(=O)NC(C)(C)C(=O)NCCc1ccccc1 (stereo not drawn) [PHELIX230, N-(1-((2-methyl-1-oxo-1-(phenethylamino)propan-2-yl)amino)-1-oxo-3-phenylpropan-2-yl)-2-oxo-3-(3-phenyl-2-(2-phenylacetamido)propanamido)butanamide] | > 10000 nM | 6.78 nM | 0.236 µM | 11.5 nM | 310 nM |  |  |  |  |
